{
  "source": "patent US7833795B2",
  "about": "“Assessment of cardiovascular risk using isoprostane biomarkers and COX-2 selective inhibitors” (The Trustees of the University of Pennsylvania, priority 2004, dated 2010)",
  "assay_type_in_all_cases": "in vivo, rat",
  "key": {"[1]": {"test_system": "Male Fisher 344 rats", "experiment": "Plasma lipid hydroperoxides (LPO assay kit) after CCl4", "conditions": "for LOOH (by LPO assay kit): plasma", "method": "(§1) Animals and treatment protocol: Male Fisher 344 rats (260-280 g) obtained from Charles River Laboratories (Raleigh, N.C.) were used in all experiments. The animals were housed three to a cage. Autoclaved hardwood bedding was used in solid-bottom polycarbonate cages with filter tops. Animal rooms were maintained at 20-25° C. with 35-70% relative humidity with alternating 12-hour light and dark cycles. The rats had free access to deionized, reverse-osmosis-treated water and received autoclaved NIH 31 rodent chow (Zeigler Bros., Gardners, Pa.) ad libitum. For all experiments, rats were fasted overnight and then administered intraperitoneal injections of carbon tetrachloride in canola oil. Control rats received an equal volume of canola oil. Fasting continued throughout the experiment. Rats were anesthetized with Nembutal (0.1 ml/100 g body weight) and 5 ml blood was removed from the dorsal aorta proximal to its bifurcation into the common iliac arteries.\n(§2) Carbon tetrachloride (CCL4) treatment: Animals from each of the three dose groups (Control-canola oil, 120 mg/kg CCl4 i.p. and 1200 mg/kg CCl4 i.p.) were investigated at three time points (2, 7, and 16 hours after CCl4 injection). Indomethacin-pretreated rats were also investigated at the same three time points, and the meclofenamic acid-pretreated rats were investigated at one time point (7 hours). Each group consisted of five rats for each analysis, except the meclofenamic acid pretreatment group which consisted of six rats. Animal treatment, sample preparation, assessment of liver histology and serum enzyme activities are described elsewhere (Kadiiska et al., 2000, Free Radic. Biol. Med. 28: 838-845; Jackson, 1989, J. Pharmacol. Exp. Ther. 250: 9-21) and were carried out at NIEHS, Research Triangle Park, N.C.\nPlasma sample preparation: Blood (5 ml) was drawn through single draw Vacutainer® needles (21 Gauge) into open Vacutainer® blood collection tubes containing heparin. The tubes were gently inverted 2-3 times for mixing and immediately placed on ice. Blood was centrifuged (2,000 rpm for 10 minutes at 4° C.) no more than 30 minutes after collection, and the plasma was collected, frozen on dry ice and stored at −70° C.\nTwo assays were used to measure the effect of CCl4 on lipid hydroperoxides. A lipid hydroperoxide assay kit (Catalog No. 705002) from Cayman Chemical Company (Ann Arbor, Mich.) was used to measure hydroperoxides directly, utilizing the redox reaction with ferrous ion. Hydroperoxides were extracted into chloroform and reacted with ferrous ions to produce ferric ions. The resulting ferric ions were detected using thiocyanate ion as the chromogen. The hydroperoxide concentration was determined based on the absorption at 504 nm using a Beckman DU-7 spectrophotometer at room temperature. The experiments were performed at National Institute of Environmental Health Sciences (NIEHS), Research Triangle Park, N.C."}, "[2]": {"test_system": "Male Fisher 344 rats", "experiment": "Urinary MDA by HPLC with spectrophotometry", "conditions": "for MDA (by HPLC with spectrophotometry): urine", "method": "as §1\n(§3) Indomethacin pretreatment: The indomethacin regimen used has been previously shown to inhibit COX activity in rats by 90% (dose of 5 mg/kg s.c. 24 hours, 12 hours, and 2 hours prior to the injection of CCl4) (Jackson, 1989, J. Pharmacol. Exp. Ther. 250: 9-21). An additional booster dose was injected 8 hours after the last injection of CCl4 for the measurements performed 16 hours after treatment with CCl4.\n(§4) Meclofenamic acid pretreatment: Meclofenamic acid was injected at a dose of 5 mg/kg i.p. 12 h and 2 h prior to the injection of CCl4.\nas §2\n(§5) Urine sample preparation: The day prior to treatment, both experimental and control animals were placed in stainless steel metabolic cages especially designed for urine collection. For Experimental Example 2, animals were placed in metabolic cages immediately after the last injection of indomethacin or meclofenamic acid. Urine was collected (in dark vials) from the animals during the following intervals: 2 to 7 hours and 7 to 16 hours after CCl4 or canola oil (controls) treatment. Urine samples from indomethacin-pretreated rats were collected from 2 to 7 hours and 7 to 16 hours after the injection of CCl4, whereas samples from meclofenamic-acid-pretreated rats were collected only from 2 to 7 hours after the injection. All urine samples were immediately frozen on dry ice and stored at −70° C.\nUrinary MDA was analyzed using high pressure liquid chromatography (HPLC). To 500 μl urine samples, 25 μl BHT and 750 μl 0.5% TBA solution were added, in this order. Samples were incubated at 60° C. for 60 minutes. After cooling, chloroform (750 μl) was added and mixed well. Following centrifugation, the aqueous layer was removed and used for HPLC analysis (column […]; mobile phase, 6:4(v/v) 0.04 M acetate buffer (pH 5.5)/MeOH; detection, 532 nm). The procedure was developed and performed by OXIS Research, Portland, Oreg."}, "[3]": {"test_system": "Male Fisher 344 rats", "experiment": "Urinary free plus esterified 8-iso-PGF2α by immunoassay", "conditions": "for Free plus esterified 8-iso PGF2a (by immunoassay): urine", "method": "as §1, §3, §4, §2, §5\nUrinary 8-iso-PGF2α concentrations were measured by the competitive immunoassay procedure in which 8-iso-PGF2α conjugated to alkaline phosphatase competed with the test analyte for antibody specific for the isoprostane. The anti-8-iso-PGF2α antibody was captured by anti-Fc antibodies immobilized on a microtiter plate. The assay was developed by Assay Designs, Inc., Ann Arbor, Mich. and performed at OXIS Research, Portland, Oreg.\nIn an additional method not recited in Example 1, an immunoassay was used to measure the sum of free plus esterified 8-iso-PGF2α. The immunoassay used anti-8-iso-PGF2α antibody was developed by Assay Designs, Inc., Ann Arbor, Mich., and performed at Oxis Research, Portland, Oreg."}, "[4]": {"test_system": "Male Fisher 344 rats", "experiment": "Urinary 8-OHdG by immunoassay", "conditions": "for 8-OHdG (by immunoassay): urine", "method": "as §1, §2, §5\n8-Hydroxy-2′-deoxyguanosine (8-OHdG) was measured using an immunoassay. In brief, 8-OHdG was determined using a microtiter ELISA method where the test analyte competed with monoclonal antibody against 8-OHdG for 8-OHdG bound to the plate. After incubation and washing, an anti-mouse second antibody conjugated to horseradish peroxidase was used to determine the bound monoclonal antibody. The color yield is […] to the analyte concentration. Data reduction was by 4-parameter logistic curve fit. The assay was developed and measurements were performed by Oxis Research, Portland, Oreg."}, "[5]": {"test_system": "Male Fisher 344 rats", "experiment": "Urinary free 8-iso-PGF2α by radioimmunoassay", "conditions": "both doses of CCl4, 7 h", "method": "as §1, §4\nas §2, with “N.C. […]” for “N.C.”\nIn Experimental Example 2, urine samples were also analyzed for free 8-iso-PGF2α, without any extraction, by radioimmunoassay (Basu, 1998, Prost. Leuk. Ess. Fatty Acids. 58: 319-325). […]"}},
  "data": [
    {"smiles": "ClC(Cl)(Cl)Cl", "note": "[CCl4, Carbon tetrachloride]", "values": [
      {"measurement": "LOOH (by LPO assay kit)", "setting": "[1]; CCl4 120 mg/kg i.p., 2 h", "result": 0.96, "unit": "µM"},
      {"measurement": "LOOH (by LPO assay kit)", "setting": "[1]; CCl4 120 mg/kg i.p., 7 h", "result": 1.20, "unit": "µM"},
      {"measurement": "LOOH (by LPO assay kit)", "setting": "[1]; CCl4 120 mg/kg i.p., 16 h", "result": 1.60, "unit": "µM"},
      {"measurement": "LOOH (by LPO assay kit)", "setting": "[1]; CCl4 1200 mg/kg i.p., 2 h", "result": 1.42, "unit": "µM"},
      {"measurement": "LOOH (by LPO assay kit)", "setting": "[1]; CCl4 1200 mg/kg i.p., 7 h", "result": 1.35, "unit": "µM"},
      {"measurement": "LOOH (by LPO assay kit)", "setting": "[1]; CCl4 1200 mg/kg i.p., 16 h", "result": 1.64, "unit": "µM"},
      {"measurement": "increase of lipid hydroperoxides compared to controls (kit)", "setting": "[1]; high dose CCl4, 2 hour", "result": 3, "unit": "fold"},
      {"measurement": "MDA (by HPLC with spectrophotometry)", "setting": "[2]; CCl4 120 mg/kg i.p., 7 h", "result": 2.01, "unit": "nmol/mg creatinine"},
      {"measurement": "MDA (by HPLC with spectrophotometry)", "setting": "[2]; CCl4 120 mg/kg i.p., 16 h", "result": 1.54, "unit": "nmol/mg creatinine"},
      {"measurement": "MDA (by HPLC with spectrophotometry)", "setting": "[2]; CCl4 1200 mg/kg i.p., 7 h", "result": 2.61, "unit": "nmol/mg creatinine"},
      {"measurement": "MDA (by HPLC with spectrophotometry)", "setting": "[2]; CCl4 1200 mg/kg i.p., 16 h", "result": 2.16, "unit": "nmol/mg creatinine"},
      {"measurement": "increase of urinary MDA", "setting": "[2]; higher dose of CCl4, urine collected 7 hours after treatment", "result": 3, "unit": "fold"},
      {"measurement": "Free plus esterified 8-iso PGF2a (by immunoassay)", "setting": "[3]; CCl4 120 mg/kg i.p., 7 h", "result": 25.7, "unit": "ng/mgcreatinine"},
      {"measurement": "Free plus esterified 8-iso PGF2a (by immunoassay)", "setting": "[3]; CCl4 120 mg/kg i.p., 16 h", "result": 17.4, "unit": "ng/mgcreatinine"},
      {"measurement": "Free plus esterified 8-iso PGF2a (by immunoassay)", "setting": "[3]; CCl4 1200 mg/kg i.p., 7 h", "result": 57.0, "unit": "ng/mgcreatinine"},
      {"measurement": "Free plus esterified 8-iso PGF2a (by immunoassay)", "setting": "[3]; CCl4 1200 mg/kg i.p., 16 h", "result": 30.4, "unit": "ng/mgcreatinine"},
      {"measurement": "increase of urinary 8-iso-PGF2α (immunoassay)", "setting": "[3]; high dose CCl4, 7 h", "result": 10, "unit": "fold"},
      {"measurement": "increase of urinary 8-iso-PGF2α (immunoassay)", "setting": "[3]; high dose CCl4, 16 h", "result": 6, "unit": "fold"},
      {"measurement": "8-OHdG (by immunoassay)", "setting": "[4]; CCl4 120 mg/kg i.p., 7 h", "result": 42, "unit": "ng/mg creatinine"},
      {"measurement": "8-OHdG (by immunoassay)", "setting": "[4]; CCl4 120 mg/kg i.p., 16 h", "result": 83, "unit": "ng/mg creatinine"},
      {"measurement": "8-OHdG (by immunoassay)", "setting": "[4]; CCl4 1200 mg/kg i.p., 7 h", "result": 165, "unit": "ng/mg creatinine"},
      {"measurement": "8-OHdG (by immunoassay)", "setting": "[4]; CCl4 1200 mg/kg i.p., 16 h", "result": 60, "unit": "ng/mg creatinine"},
      {"measurement": "increase of urinary 8-OHdG", "setting": "[4]; high dose CCl4, 7 h", "result": 7, "unit": "fold"},
      {"measurement": "increase of urinary 8-OHdG", "setting": "[4]; high dose CCl4, 16 h", "result": 3, "unit": "fold"},
      {"measurement": "urinary free 8-iso-PGF2α (radioimmunoassay)", "setting": "[5]", "result": "dose-dependent increase"}
    ]}
  ]
}
